Among the data in PubChem BioAssay (NCI) are GI50 and TGI values, retold here.

Several values for one entry are separate records, joined by “and”; a condition that tells them apart may be missing. Identical values can stand only once.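 Where inhibition never reached the appropriate level, the endpoint shown equals the highest concentration tested. Otherwise, values were interpolated linearly from a five-concentration, 48-hour dose response in 96-well plates. Abbreviation: GI50, concentration required for 50% inhibition of growth. TGI denotes the concentration required for complete inhibition of growth.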

Common to all, as to experiment: growth of human tumour cells (NCI), 48 h
Test [1] relates to K-562 leukemia.
In test [2] the test system is NCI-H522 lung.
The test system of test [3] is UO-31 renal.
For test [4], the system named is MOLT-4 leukemia.
Test [5] deals with HOP-62 NSCLC.
For test [6], the system named is SK-OV-3 ovarian.
Test [7] relates to HOP-92 NSCLC.
The test system of test [8] is MALME-3M melanoma.
Test [9] relates to HT29 colon.
Test [10] deals with A549 NSCLC.

Regarding `COc1ccc(-c2ccc(-c3ccc(C(=N)N)cn3)o2)cc1`, the GI50 in [1] is 3.97 µM; in test [2] it was 6.8 µM; in test [3], 2.68 µM; in [4], 4.4 µM; in [5], 10.5 µM; in [6], 10.2 µM. Moreover, the GI50 in test [7] was 1.31 µM; in test [8] it was 3.25 µM; in test [9], 3.4 µM; in test [10], 5.1 µM. In addition, the TGI in [1] was determined as 13.5 µM; in test [2], 20.7 µM; in test [3] it was 17.3 µM; in test [4] it was 15.5 µM; in test [5], 22.6 µM; in test [6], 21.8 µM. Moreover, the TGI in [7] was 6.4 µM; in test [8], 7.32 µM; in test [9], 11.1 µM; in test [10], 18.7 µM.

In the case of `CCOC(=O)c1cc(/C=C/C(C)=C/C(=O)OC)oc1C`, the TGI in test [1], in [2], in [3], in [4], in [5] and in [6] was > 100 µM each time. For the same compound, the TGI in [7], in test [8], in test [9] and in test [10] was > 100 µM each time.

On to `CN1CC[C@]2(C)c3ccc(O)cc3CC3CCCC1C32C` (some centres undefined), for which the TGI in test [1], in test [2], in [3], in test [4], in test [5] and in [6] was > 100 µM in each case. The TGI in test [7], in [8], in test [9] and in test [10] was > 100 µM in each case.

Regarding `COc1cc(/C=C2\C(=O)Nc3ccc(N(C)C)cc32)cc(OC)c1OC`, the GI50 in [1] was 0.58 µM; in test [2], 1.47 µM; in [3] it was 3.17 µM; in test [4] it was 2.87 µM; in [5], 8.48 µM; in test [6] it was 3.55 µM. In addition, the GI50 in test [7] is 3.17 µM; in [8], 3.23 µM; in test [9] it was 2.11 µM; in test [10], 3.86 µM. Further, the TGI is > 25.6 µM in [1]; 5.75 µM in [2]; > 87.4 µM in test [3]; > 30.9 µM in test [4]; 50.2 µM in test [5]; 30.4 µM in test [6]. The TGI is 36.3 µM in test [7], > 30.2 µM in [8], > 100 µM in [9] and 35.9 µM in test [10].

Consider `COc1ccccc1/C=C/C(=O)c1ccccc1`, for which the GI50 in [1] is 3.41 µM; in test [2], 4.11 µM; in [3], 4.69 µM; in [4], 2.92 µM; in test [5], 18.8 µM; in [6], 33.3 µM. The GI50 in test [7] is 6.3 µM; in test [8], 15.4 µM; in test [9] it was 5.73 µM; in test [10] it was 17.9 µM. Moreover, the TGI is > 100 µM in test [1]; 17.4 µM in test [2]; 17.9 µM in [3]; > 36.6 µM in [4]; 37 µM in [5]; > 100 µM in [6]. For the same compound, the TGI in test [7] stood at 30.7 µM; in test [8] it was 31.6 µM; in test [9], 26.9 µM; in [10] it was 38.8 µM.

In the case of `CN(C)CCCNC(=O)c1ccc2c(c1)oc1cc3ccccc3c(=O)n12`, the GI50 in test [1] is 27.2 µM; in test [2], 9.33 µM; in test [3] it was 8.75 µM; in [4] it was 18.4 µM; in test [5], > 50 µM; in test [6], 38.7 µM. Further, the GI50 in test [7] was > 50 µM; in test [8] it was > 50 µM; in test [9], 12.7 µM; in [10], 5.98 µM. Also, the TGI is > 50 µM in test [1]; 21.8 µM in test [2]; 20.2 µM in test [3]; > 50 µM in test [4]; > 50 µM in [5]; > 50 µM in test [6]. The TGI in [7] is > 50 µM; in test [8], > 50 µM; in test [9] it was 27.7 µM; in [10], 16 µM.

Turning to `COc1ccc(Cn2c3c(cc(OS(=O)(=O)C(F)(F)F)c2=O)Cc2ccccc2-3)cc1`, the GI50 in [1] was 5.1 µM; in test [2], 7.24 µM; in [3] it was 9.37 µM; in [4] it was 4.18 µM; in [6], > 100 µM; in test [7], 17.6 µM. Also, the GI50 was 20.7 µM in test [8], 79 µM in [9] and 9.95 µM in test [10]. In addition, the TGI in test [1] is 50 µM and > 100 µM; in test [2], 50 µM and > 100 µM; in [3], 50 µM and > 100 µM; in test [4], 50 µM and > 100 µM; in test [5] it was 50 µM; in [6], 50 µM and > 100 µM. Further, the TGI in test [7] was 50 µM and > 100 µM; in test [8] it was 50 µM and > 100 µM; in [9] it was > 100 µM; in test [10], 50 µM and > 100 µM.

Turning to `CC1=C(C(=O)Nc2cccc(Cl)c2)C(c2ccccc2F)C(C(=O)Nc2cccc(Cl)c2)=C(C)N1`, the TGI in test [1] is 24.6 µM; in [2] it was 23.1 µM; in test [3], 20.8 µM; in [4], 14.7 µM; in [5], 31.3 µM; in test [6], 55.5 µM. In addition, the TGI in test [7] amounted to 8.7 µM; in test [8], 31.8 µM; in test [9] it was 15.5 µM; in test [10], 40.6 µM.

For the compound `Nc1ccc(C(=O)CC(N)C(=O)O)cc1O` (centres undefined), the TGI in test [1], in test [2], in test [3], in test [4], in [5] and in [6] was > 100 µM in each case. Further, the TGI in [7], in test [8], in [9] and in [10] was > 100 µM throughout.

As for `COc1cc(-c2cn(-c3ccc(Cl)c(Cl)c3)c(=O)n2C(C)=O)cc(OC)c1OC`, the GI50 in test [1] is 16.1 µM; in [2], 13.3 µM; in test [3], 12 µM; in [4] it was 14.7 µM; in [5] it was 7.48 µM; in test [6], 15.4 µM. The GI50 in test [7] was 3.42 µM; in [8], 15.3 µM; in test [9], 6.32 µM; in test [10] it was 15 µM. Further, the TGI in test [1] was > 100 µM; in test [2], 30 µM; in test [3] it was 27.4 µM; in test [4], 31.6 µM; in test [5], 21.1 µM; in test [6] it was 33.3 µM. Also, the TGI stood at 16.8 µM in test [7], 33.3 µM in test [8], 21.8 µM in test [9] and 41 µM in [10].

With `COc1ccc(Cn2cc3c(c2)-c2oncc2CC3)cc1`, the GI50 is 2.4 µM in test [1]; 3.24 µM in [2]; 5.16 µM in [3]; 2.82 µM in test [4]; 9.64 µM in [5]; 4.92 µM in test [6]. For the same compound, the GI50 in test [7] was 5.14 µM; in test [8], 7.24 µM; in test [9] it was 3.69 µM; in test [10], 7.26 µM. Also, the TGI is > 66.5 µM in test [1]; 16.7 µM in test [2]; > 90.7 µM in test [3]; 22.2 µM in test [4]; > 100 µM in test [5]; > 82.1 µM in [6]. Moreover, the TGI in [7] was 37.3 µM; in test [8] it was 54.5 µM; in test [9], > 64.8 µM; in test [10], > 74.4 µM.

As for `Cc1ccc(-c2cc(-c3ccco3)c(C#N)c(=O)n2C2OC(OC(=O)c3ccccc3)C(OC(=O)c3ccccc3)C2OC(=O)c2ccccc2)cc1` (centres undefined), the TGI in [1], in test [2], in [3], in [4], in [5] and in test [6] was > 100 µM in each case. Moreover, the TGI was 59.4 µM in [7], > 100 µM in test [8], > 100 µM in test [9] and > 100 µM in [10].

Take `NCCCCNc1ccc2c(=O)[nH][nH]c(=O)c2c1`: the TGI in test [1], in [2], in [3], in test [4], in test [5] and in [6] was > 100 µM each time. For the same compound, the TGI in test [7], in [8], in test [9] and in test [10] was > 100 µM each time.

On to `NC(=S)NNc1c([N+](=O)[O-])cnn(-c2ccccc2)c1=O`, for which the TGI worked out at 15.9 µM in [1]; 33.6 µM in [2]; 38 µM in test [3]; 62.5 µM in [4]; 34.4 µM in test [5]; 36 µM in test [6]. In addition, the TGI in [7] is 34.8 µM; in [8] it was 33.7 µM; in [9] it was 35.1 µM; in test [10], 49.9 µM.
